Results: patent US4578382A, “4-acylamino-1-azaadamantanes, and compositions for use thereof in medicine” (Etablissements Nativelle S.A., priority 1981, dated 1986)
Read-outs that look alike come from different tables or passages of the source.

What was measured:
[1] = system: ventricular arrhythmias with adrenalin; assay: Test with adrenalin after experimental infarct; type: in vivo, dog
From the text: (§1) Narcisse et al, Ann. Pharma. Fr., 37, 325-330 (1979), in the rat by the aconitine intoxication test of S. Witchitz et al, Coeur Med. Int., X(2), 281-286, (1971) and in the dog by the Harris test described in Circulation, 1, 1318, (1950) and by the test with adrenalin after experimental infarct of I. J. Steffe et al, J. Pharmacol. Exp. Ther., 214, 50-57 (1980).
2 to 5 days after an experimental infarct, the effects of discontinuous injections (in intravenous bolus of […] of basic adrenalin) of adrenalin were observed on the electrocardioagram of the conscious dog.
During a first phase (control) of the experiment, three successive injections of adrenalin were given and, in the 2 minutes following each injection, the frequency of the ventricular extrasystoles was measured. In this manner, by increasing the dose of adrenalin as necessary, it was possible to determine the dose which caused the appearance of ventricular extrasystoles at a higher frequency than or equal to half the total number of ventricular systoles.
After injection of the derivative to be tested, the same dose of adrenalin was reinjected after 5 minutes, then 30 minutes, 60 minutes, 90 minutes, etc., and its effects were compared to those observed during the control period.
The results therein are expressed as a percentage of extrasystoles (on the total number of systoles) measured during the 2 minutes following the injection of adrenalin before and after the administration of the derivative to be tested.

ventricular arrhythmias = assay: Harris test (ventricular arrhythmias after experimental infarct); type: in vivo, dog
From the text: as §1
The ligature of the anterior interventricular artery in the anesthetized dog causes the appearance of an experimental infarct of the myocardium followed by considerable ventricular arrhythmias.
The dogs were studied 24 to 48 hours after the intervention. The electrocardiogram (ECG) was then recorded permanently, the conscious dog being at rest in an isolated laboratory. After a period of 3 hours of ECG recording, allowing for the measurement of the cardiac frequency of the dog the frequency of ventricular extrasystoles (ESV)--pre-treatment control period--the derivative to be studied was injected intravenously for 1 minute. Continuous recording of the ECG enabled, in the hours following the injection, measurement of the frequency of the ESV/mn for successive periods from 30 to 60 min. The number of ESV per minute measured for 3 hours during the control period varied from 66 to 172/min with an average of 111/min. […] The length of this antiarrhythmic effect observed varied depending on the derivatives from 1 hour to more than 5 hours. For example, the percentage decrease of the ESV/min in the case of the derivative of Example 11 (cumulative dose 14 mg/kg) was 96% (0 to 1/2 hour), 50% (1/2 to 1 hour) and 68% (1 to 2 hour). The corresponding values for the derivative of Example 4 (3 mg/kg) were 44%, 55% and 45%, respectively.

[2] = Lawson test (cardiac antifibrillatory power, chloroform); details: in vivo, ip; mouse, intraperitoneal; read-out: Maximum Dose Tolerated
[3] = system: anoxic ventricular fibrillation; assay: as above; type: in vivo; details: ip; mouse, intraperitoneal, 10 minutes before chloroform
Description: The Lawson test is a test for the study of the cardiac antifibrillatory power of the derivatives. The mice (20 per group) received an intraperitoneal injection of the derivative 10 minutes before being placed in a chloroform-saturated atmosphere. Upon respiratory arrest, the thorax was opened (5 to 10 seconds) and whether or not the heart was in ventricular fibrillation was checked. The efficacy dose 50 (ED 50) of the derivative being studied is the dose which protects half the mice against anoxic ventricular fibrillation.

anesthetized dog [4] = assay: Electrophysiological studies on the anesthetized dog; type: in vivo; details: i.v., 2 evaluations
Description: This study was carried out on dogs anesthetized with pentobarbital, with a closed thorax, by means of bipolar catheter-electrodes introduced into the cardiac cavities by transcutaneous venous and arterial means. The surface electrocardiogram (standard derivation D2) is recorded permanently.
By means of a programmable JANSEN (R) stimulator, the following parameters may be measured:
spontaneous cardiac frequency (FC);
sinus recuperation time (SRTc) after auricular stimulation imposed at 160 b/mn for 1 mn;
intracardiac conduction times (auriculohisien at a constant frequency, His-Purkinje, intraventricular);
the effective and functional refractory periods measured at an imposed constant frequency, with the extrastimulus method.
During the electrophysiological study, the derivatives were injected intravenously for 2 minutes for each dose and at 30 minute intervals between each dose. The doses are expressed as a cumulative value and as a base term.
The measurement of the various parameters was carried out before the injection of the first dose (control period) and from 10 to 28 minutes after the injection of each dose of the substance. The results are expressed as a percentage of variation in relation to the control period.

anesthetized dog [5] = assay: Hemodynamic (cardiovascular) tolerance in the anesthetized dog; type: in vivo; details: i.v., vs control period
Description: The hemodynamic tolerance of the derivatives of the invention was studied on dogs anesthesized with sodium pentobarbital. Endocavitary pressures were measured by means of catheters connected to Statham sensors while external recording of the electrocardiogram (E.C.G.) provided the measurement of cardiac frequency. Cardiac flow was measured by means of an electromagnetic sensor placed on the beginning of the aorta. The total peripheral resistances R were calculated from the value of the average aortic pressure (P) and the cardiac flow (Q) in accordance with the formula R=P/Q.
After measurement of the parameters during a control period, the derivatives were injected intravenously in cumulative doses (30 minute interval between doses). The variations of the parameters in relation to the control period were measured within 20 and 30 minutes after each injection and are expressed as a percentage of variation in relation to the control.
Table 2 summarizes the variations in hemodynamic parameters observed between the first and last injections.

[6] = Acute toxicity in the mouse (LD 50, Litchfield and Wilcoxon); details: in vivo
Description: The acute toxicity of the derivatives of the invention were studied by intraperitoneal administration (I.P.) on the mouse (10 animals, 5 males and 5 females per dose) and calculation of the lethal dose 50 (LD 50) in accordance with the method of Litchfield and Wilcoxon (J. Pharmacol. 96, 99-113 (1949)).
In certain cases (derivatives of Examples 4, 6, 9), the LD 50 was also calculated after oral administration (P.O.) of the derivatives.

[7] = system: ventricular arrhythmias and death induced by the aconitine; assay: Aconitine intoxication test in the anesthetized rat; type: in vivo; details: i.v., vs untreated control
From the text: as §1
The anesthetized rat was intoxicated with an intravenous perfusion of aconitine while its electrocardiogram (ECG) was permanently recorded. During the perfusion at constant rate, the time necessary for the appearance of ventricular arrhythmias, successive extrasystoles (ESV), then stable ventricular tachycardium (TV) and the time within which the animal died were measured.
The animals were divided into a control group (untreated) and treated groups (different doses). The results are expressed as a percentage of prolonging the time of appearance of the arrhythmias and of death of the treated groups in reaction to the control group.
The results obtained are shown in Table 4 below and express the percentage of prolongation of the time of appearance of ventricular arrhythmias (ventricular extrasystoles and ventricular tachycardiums), and of the death, induced by the aconitine after an intravenous injection (I.V.) of several derivatives of the invention, in relation to a group of untreated control animals.

[8] = 14.3 mg/kg, control period 74% of ESV
[9] = cumulative doses 0.3 to 10 mg/kg
[10] = ip, intraperitoneal, read-out: LD 50 I.P.
[11] = 1 mg/kg, control period 48% of ESV

SMILES: CC1(NC(=O)CCc2ccccc2)C2CC3CC1CN(C2)C3(C)C (centres unmarked) [Example 4, N-(3-phenylpropionyl)-4-amino-4,8,8-trimethyl-1-azaadamantane]
- ESV Percentage at 5 min [1, 8]: 36%
- ESV Percentage at 30 min [1, 8]: 59%
- ESV Percentage at 60 min [1, 8]: 60%
- Percentage decrease of the ESV/min (ventricular arrhythmias; 3 mg/kg i.v., 0 to 1/2 hour): 44%
- Percentage decrease of the ESV/min (ventricular arrhythmias; 3 mg/kg i.v., 1/2 to 1 hour): 55%
- Percentage decrease of the ESV/min (ventricular arrhythmias; 3 mg/kg i.v., 1 to 2 hour): 45%
- MTD [2]: 200 mg/kg
- ED50 [3]: 72 mg/kg
- F.C. (cardiac frequency), variation (anesthetized dog [4]; doses 0.3 to 14.3 mg/kg): 0%
- HV (time of His-Purkinje conduction), variation (anesthetized dog [4]; doses 0.3 to 14.3 mg/kg): 0 to +80%
- PREA (effective auricular refractory period), variation (anesthetized dog [4]; doses 0.3 to 14.3 mg/kg): +10 to +35%
- PREV (effective ventricular refractory period), variation (anesthetized dog [4]; doses 0.3 to 14.3 mg/kg): 0 to +10%
- QRS (time of intraventricular conduction), variation (anesthetized dog [4]; doses 0.3 to 14.3 mg/kg): 0 to +15%
- St-H (time of auriculohisien conduction), variation (anesthetized dog [4]; doses 0.3 to 14.3 mg/kg): +7 to +10%
- Cardiac Flow, percentage of variation (anesthetized dog [5]; [9]): -7 to -23%
- Cardiac Frequency, percentage of variation (anesthetized dog [5]; [9]): -7%
- Systolic Arterial Pressure, percentage of variation (anesthetized dog [5]; [9]): -7 to -28%
- Total Peripheral Resistances, percentage of variation (anesthetized dog [5]; [9]): 0 to -13%
- dp/dt/p Left Ventricular, percentage of variation (anesthetized dog [5]; [9]): 0 to -40%
- LD50 [6, 10]: 375 mg/kg
- LD50 ([6]; oral, read-out: LD 50 P.O.): 2400 mg/kg
- Prolongation of time of appearance of ventricular extrasystoles (ESV) ([7]; 5 mg/kg): +37%
- Prolongation of time of appearance of ventricular tachycardium (TV) ([7]; 5 mg/kg): +50%
- Prolongation of time to death ([7]; 5 mg/kg): +25%
- Prolongation of time of appearance of ventricular extrasystoles (ESV) ([7]; 10 mg/kg): +60%
- Prolongation of time of appearance of ventricular tachycardium (TV) ([7]; 10 mg/kg): +86%
- Prolongation of time to death ([7]; 10 mg/kg): +39%
- Prolongation of time of appearance of ventricular extrasystoles (ESV) ([7]; 20 mg/kg): +103%
- Prolongation of time of appearance of ventricular tachycardium (TV) ([7]; 20 mg/kg): +89%
- Prolongation of time to death ([7]; 20 mg/kg): +65%

SMILES: CC1(NC(=O)Cc2ccccc2)C2CC3CC1CN(C2)C3(C)C (centres unmarked) [Example 9, N-phenylacetyl-4-amino-4,8,8-trimethyl-1-azaadamantane]
- ESV Percentage at 5 min [1, 11]: 11%
- ESV Percentage at 30 min [1, 11]: 27%
- ESV Percentage at 60 min [1, 11]: 45%
- MTD [2]: 200 mg/kg
- ED50 [3]: 90 mg/kg
- F.C. (cardiac frequency), variation (anesthetized dog [4]; doses 1 to 19 mg/kg): 0%
- HV (time of His-Purkinje conduction), variation (anesthetized dog [4]; doses 1 to 19 mg/kg): +18 to +100%
- PREA (effective auricular refractory period), variation (anesthetized dog [4]; doses 1 to 19 mg/kg): +6 to +45%
- PREV (effective ventricular refractory period), variation (anesthetized dog [4]; doses 1 to 19 mg/kg): +2 to +15%
- QRS (time of intraventricular conduction), variation (anesthetized dog [4]; doses 1 to 19 mg/kg): 0 to +23%
- St-H (time of auriculohisien conduction), variation (anesthetized dog [4]; doses 1 to 19 mg/kg): 0 to +30%
- Cardiac Flow, percentage of variation (anesthetized dog [5]; cumulative doses 1 to 10 mg/kg): 0 to -30%
- Cardiac Frequency, percentage of variation (anesthetized dog [5]; cumulative doses 1 to 10 mg/kg): 0 to -12%
- Total Peripheral Resistances, percentage of variation (anesthetized dog [5]; cumulative doses 1 to 10 mg/kg): -5 to +15%
- dp/dt/p Left Ventricular, percentage of variation (anesthetized dog [5]; cumulative doses 1 to 10 mg/kg): 0 to -33%
- LD50 [6, 10]: 430 mg/kg
- LD50 ([6]; oral, read-out: LD 50 P.O.): 2400 mg/kg
- Prolongation of time of appearance of ventricular extrasystoles (ESV) ([7]; 10 mg/kg): +31%
- Prolongation of time of appearance of ventricular tachycardium (TV) ([7]; 10 mg/kg): +79%
- Prolongation of time to death ([7]; 10 mg/kg): +44%
- Prolongation of time of appearance of ventricular extrasystoles (ESV) ([7]; 20 mg/kg): +100%
- Prolongation of time of appearance of ventricular tachycardium (TV) ([7]; 20 mg/kg): +79%
- Prolongation of time to death ([7]; 20 mg/kg): +84%
- Prolongation of time of appearance of ventricular extrasystoles (ESV) ([7]; 40 mg/kg): +171%
- Prolongation of time of appearance of ventricular tachycardium (TV) ([7]; 40 mg/kg): +147%
- Prolongation of time to death ([7]; 40 mg/kg): +88%

SMILES: CC1(NC(=O)CCCc2ccccc2)C2CC3CC1CN(C2)C3(C)C (centres unmarked) [Example 11, N-(4-phenylbutyryl)-4-amino-4,8,8-trimethyl-1-azaadamantane]
- Percentage decrease of the ESV/min (ventricular arrhythmias; cumulative dose 14 mg/kg i.v., 0 to 1/2 hour): 96%
- Percentage decrease of the ESV/min (ventricular arrhythmias; cumulative dose 14 mg/kg i.v., 1/2 to 1 hour): 50%
- Percentage decrease of the ESV/min (ventricular arrhythmias; cumulative dose 14 mg/kg i.v., 1 to 2 hour): 68%
